Tested on: skeletal muscle atrophy
Test: Skeletal muscle atrophy after sciatic nerve crush injury
Assay type: in vivo, mouse
Text: FIGS. 10A-10F show the rescue of skeletal muscle from atrophy induced by crush injury to the sciatic nerve by daily administration of clinically relevant dosages of 4-AP.
These stem cells are believed to play roles in preventing and/or repairing muscle atrophy.
In particular, 4-AP was applied as a means of preventing skeletal muscle atrophy following damage to the nerve innervating muscles of limb, as illustrated in FIG. 10. In these experiments, the sciatic nerve of the mouse was crushed in such a manner that not all axons were severed. In these injuries, skeletal muscle atrophy is a significant consequence, just as it is in patients with similar injuries. This type of injury can be a problem for many reasons, including the fact that if atrophy is not stopped or reversed within a relatively short period of time, the damage done may become irreversible.

[1] = mouse, sciatic nerve crush injury

Structure (SMILES): Nc1ccncc1 [4-AP, 4-aminopyridine]
- numbers of Pax7+ muscle stem cells (both at 7 days and 14 days post nerve crush injury): increased the numbers of Pax7+ cells
- muscle strength (mice, 7 days after nerve crush injury, daily 4-AP): greater muscle strength as compared with saline-treated mice
- expression of MuRF-1 in muscle [1]: decreases expression of MuRF-1
- expression of myogenin in muscle [1]: decreases expression of myogenin
- muscle atrophy judged by cross-sectional size of muscle (mouse, sciatic nerve crush injury, daily 4-AP): decreases muscle atrophy
